In this data set the test system is pancreatic esterases. Description: In vitro metabolic stability in simulated duodenal/pancreatic fluid. Format: in vitro ADME, porcine. The method, then:
This study has been performed for 2A since it contains an ester bond in the side chain and the aim was to verify the stability in presence of esterase enzymes like present in duodenal and pancreatic juice. Simulated pancreatic fluid was prepared by dissolving 10 g/L Pancreatin (Sigma P8096: pancreatin from porcine pancreas, activity 1× USP specifications) in 0.05M phosphate buffer, pH=7.2±0.1. Then, 4-mL aliquots of the simulated pancreatic fluid were added of […] of the studied BA and incubated for different times (0, 30, 60, 90, 120, 180 and 240 min) at 37° C. After incubation, a 2-mL aliquot of each solution was added with 2 mL of 0.1M NaOH and subjected to bile acids extraction by SPE and analysis by thin-layer chromatography and mass spectrometry as described above. […] Olive oil was used as a reference as reported in the USP protocol.

Where a name gives a salt, the structure may show the parent alone.

As to `CCC1C(O)C2C3CCC(C(C)CC(C)OS(=O)(=O)O)C3(C)CCC2C2(C)CCC(O)CC12` [Compound 2A, 3α,7α,23-trihydroxy-6α-ethyl-23(S)-methyl-24-nor-5β-cholan-23-sulfate Sodium Salt], the “metabolic stability in simulated pancreatic fluid” value (10 g/L pancreatin, pH 7.2, 37° C., up to 240 min) was “very stable”. Further, where the note is “simulated pancreatic fluid”, the “hydrolysis of ester bond (sulphate) by pancreatic esterases” value is on record as “not hydrolyzed”.
